# Data reported in patent US6344457B1, “Amino acid derivatives inhibiting extracellular matrix metalloproteinase and TNF alpha release” (Chiesi Farmaceutici S.p.A., priority 1997, dated 2002).
# Read-outs that look alike come from different tables or passages of the source.
# Columns and labels:
# [1] = target: T1, collagenase of the human monocytic stock U937 (Homo sapiens, UniProt P03956); experiment: Activity on collagenase; format: biochemical; conditions: radiomarked collagen, 27° C., 16 hours; read-out: C150 (nM) collagenase
# T1 construct: the collagenase of the human monocytic stock U937; endogenous in cells; host or cells: U937 human monocytic cell line
# T1 sequence (P03956 100-469): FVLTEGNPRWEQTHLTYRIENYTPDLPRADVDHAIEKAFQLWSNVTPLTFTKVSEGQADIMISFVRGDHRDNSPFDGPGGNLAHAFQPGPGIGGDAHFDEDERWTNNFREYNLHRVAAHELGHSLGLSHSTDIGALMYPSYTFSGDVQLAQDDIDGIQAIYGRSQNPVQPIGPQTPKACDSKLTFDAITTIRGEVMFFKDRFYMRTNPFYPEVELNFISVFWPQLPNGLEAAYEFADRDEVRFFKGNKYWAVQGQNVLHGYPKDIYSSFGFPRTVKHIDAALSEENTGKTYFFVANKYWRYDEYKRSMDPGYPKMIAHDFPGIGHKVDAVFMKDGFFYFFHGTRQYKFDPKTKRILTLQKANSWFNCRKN
# Method: The collagenase was incubated at 27° C. for 16 hours with radiomarked collagen, and its activity was determined by the release of soluble peptides produced by the enzymatic breakdown of the collagen. The inhibiting concentration C150 for each compound was determined by measurement of the activity of the enzyme in the presence of the inhibitor at a concentration ranging between 10^−7 and 10^−12 M (the inhibitor is dissolved at a concentration of 10^−2 M in DMSO, then diluted successively by tenths in the buffer: Tris, HCl 150 mM, pH 7.5; NaCl 0.15 M; CaCl2 10 mM).
# [2] = target: T2, 72 kDa gelatinase of human origin (Homo sapiens, UniProt P08253); experiment: Activity on gelatinase, synthetic substrate; format: biochemical; conditions: performed on synthetic substrate; read-out: C150 (nM) gelatinase 72 kDa**
# T2 sequence (P08253 110-660): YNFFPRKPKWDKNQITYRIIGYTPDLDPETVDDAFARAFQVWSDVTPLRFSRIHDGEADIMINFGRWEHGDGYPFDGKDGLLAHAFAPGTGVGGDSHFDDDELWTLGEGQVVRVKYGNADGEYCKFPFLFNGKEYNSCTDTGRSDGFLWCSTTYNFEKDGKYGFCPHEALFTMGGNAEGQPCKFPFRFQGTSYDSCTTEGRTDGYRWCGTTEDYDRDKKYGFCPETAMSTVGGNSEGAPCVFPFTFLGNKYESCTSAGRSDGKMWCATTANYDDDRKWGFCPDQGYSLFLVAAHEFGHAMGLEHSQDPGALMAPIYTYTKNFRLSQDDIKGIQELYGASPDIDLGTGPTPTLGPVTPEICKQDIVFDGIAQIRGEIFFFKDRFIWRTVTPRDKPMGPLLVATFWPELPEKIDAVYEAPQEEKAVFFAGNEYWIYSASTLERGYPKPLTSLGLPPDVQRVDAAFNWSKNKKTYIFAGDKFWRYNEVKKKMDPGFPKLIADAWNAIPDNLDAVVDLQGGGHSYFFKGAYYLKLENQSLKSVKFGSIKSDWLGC
# Method: The anti-gelatinase activity of the compounds according to the invention was determined on 72 kDa gelatinase of human origin, in accordance with the operating mode described by Knight, C. G., Willenbrock, F., Murphy, G. (FEBS Letters, 296 (3), 263-266, 1992).
# The gelatinase was incubated at 37° C. for 10 minutes, and its activity was determined by the increase in fluorescence of the product of Mca-Pro-Leu breakdown of the Mca-Pro-Leu-Gly-Leu-Dpa-Ala-Arg-NH2 synthetic substrate.
# The inhibiting concentration C150 for each compound was determined by measurement of the activity of the enzyme in the presence of the inhibitor at a concentration ranging between 10^−7 and 10^−12 M (the inhibitor is dissolved at a concentration of 10^−2 M in DMSO, then diluted successively by tenths in DMSO to 10^−4 M, then in the buffer: Tris, HCl 50 mM+0.05% Brij 35; CaCl2 10 mM; NaCl 0.15 M).
# [3] = target: 92 kDa gelatinase of human origin (Homo sapiens, UniProt P14780); experiment: Activity on gelatinase, radiomarked gelatin; format: biochemical; conditions: for IC50: test performed with radiomarked gelatin, read-out: C150 (nM) gelatinase 92 kDa*; for gelatinase 92 kDa* (in %): radiomarked gelatin, concentration not given
# Method: The anti-gelatinase activity of the compounds according to the invention also was determined on 92 kDa or 72 kDa gelatinase of human origin, in accordance with the operating mode described by Harris, E. D., Krane, S. M.; (Biochem. Biophys. Acta, 258, 566-576, 1972).
# (§1) The gelatinase was incubated at 37° C. for 16 hours with radiomarked gelatin, and its activity was determined by the release of the soluble peptides produced by the enzymatic breakdown of the gelatin. The inhibiting concentration C150 for each compound was determined by measurement of the activity of the enzyme in the presence of the inhibitor at a concentration ranging between 10^−7 and 10^−12 M (the inhibitor is dissolved in the same manner as for collagenase).
# [4] = system: release of TNF from the peritoneal macrophages of mice stimulated by LPS; experiment: Inhibition of the production of TNF in vitro; format: cell-based; conditions: mouse peritoneal macrophages, LPS 100 ng/ml, read-out: C150 (μM) TNF
# Method: The capacity of the compounds according to this invention to inhibit the release of TNF was determined from the peritoneal macrophages of mice stimulated by LPS (Lang, F., Robert, […], Petit, J. Y., J. Pharmacol. Exp. Ther., 275, 171-176, 1995). After an adhesion phase of 2 hours, the cells were treated for 1 hour with the compound to be tested at concentrations ranging between 10^-6 to 10^-9 M (the inhibitor is dissolved in DMSO at 10^-2 M, then at 5.10^-3 M in RPMI 1640 with 5% SVF, then diluted successively by tenths in the same medium), then stimulated by the addition of LPS (100 ng/ml in final concentration). Three hours later, the biological activity of the TNF in the supernatants was determined by a cytotoxicity test using the murine stock L929 in accordance with the operating procedure described by Band, G., Lin, […]., Evans, C. H. (Bioch. Biophys. Acta, 1134, 309-318, 1982). The pg/ml concentration of the TNF of the samples was determined from a murine αTNF standard curve, thus making it possible to define the inhibiting concentration […] of the compounds studied.
# [5] = target: stromelysine of human origin (Homo sapiens, UniProt P08254); experiment: Activity on stromelysine; format: biochemical; conditions: radiomarked transferrin, 37° C., 16 hours; read-out: C150 (nM) stromelysine
# Method: as §1, with “stromelysine” for “gelatinase”, “transferrin,” for “gelatin,”, “transferrin.” for “gelatin.”
# Chain of stromelysine of human origin (P08254 100-477): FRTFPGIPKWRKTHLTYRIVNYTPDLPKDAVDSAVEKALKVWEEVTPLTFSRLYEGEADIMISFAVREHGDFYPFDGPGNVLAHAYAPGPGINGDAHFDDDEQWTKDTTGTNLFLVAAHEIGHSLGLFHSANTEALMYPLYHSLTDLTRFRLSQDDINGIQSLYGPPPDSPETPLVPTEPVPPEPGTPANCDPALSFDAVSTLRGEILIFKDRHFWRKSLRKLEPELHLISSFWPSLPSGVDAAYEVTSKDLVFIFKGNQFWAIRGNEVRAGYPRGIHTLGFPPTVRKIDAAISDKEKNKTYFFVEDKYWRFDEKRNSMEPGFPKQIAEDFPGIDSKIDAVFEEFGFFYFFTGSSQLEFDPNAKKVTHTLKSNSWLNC
# Chain of 92 kDa gelatinase of human origin (P14780 94-707): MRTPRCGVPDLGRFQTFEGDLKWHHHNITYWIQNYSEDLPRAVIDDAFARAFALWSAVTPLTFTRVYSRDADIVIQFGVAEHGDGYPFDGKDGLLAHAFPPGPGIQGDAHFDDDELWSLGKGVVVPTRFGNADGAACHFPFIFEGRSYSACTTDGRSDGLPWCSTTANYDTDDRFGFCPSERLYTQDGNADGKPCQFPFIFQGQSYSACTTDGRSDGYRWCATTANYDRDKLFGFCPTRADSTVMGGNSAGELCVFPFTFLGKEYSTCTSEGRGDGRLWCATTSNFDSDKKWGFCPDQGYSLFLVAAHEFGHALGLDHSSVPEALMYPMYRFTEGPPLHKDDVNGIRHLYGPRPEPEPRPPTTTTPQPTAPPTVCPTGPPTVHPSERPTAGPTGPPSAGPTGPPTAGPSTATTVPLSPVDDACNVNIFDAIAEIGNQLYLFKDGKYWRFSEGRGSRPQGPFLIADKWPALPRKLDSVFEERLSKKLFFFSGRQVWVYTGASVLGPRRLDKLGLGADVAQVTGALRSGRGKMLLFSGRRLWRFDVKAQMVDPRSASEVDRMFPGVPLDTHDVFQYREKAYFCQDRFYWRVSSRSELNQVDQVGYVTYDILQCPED
Compound,IC50 [1] [nM],IC50 [2] [nM],IC50 [3] [nM],IC50 ([4]; Peritoneal macrophage) [µM],gelatinase 92 kDa* (in %) [3] [%],IC50 [5] [nM],IC50 [4] [µM]
"CNC(=O)[C@H](Cc1ccc(OC)cc1)NC(=O)[C@](O)(C(C)C)[C@H](C)C(=O)NO [Example 7, N-2(S) [-1-(S) hydroxycarbamoyl 1(S)ethyl] 2(S) hydroxy-3 methyl butanoyl O-methyltyrosine N-methylamide]",30,18,17,2,,,
"COCCOCCNC(=O)[C@H](Cc1ccc(Cl)c(Cl)c1)NC(=O)[C@](O)(CC(C)C)[C@H](C)C(=O)NO [Example 23, N-2(S) [1(S) hydroxycarbamoyl-1 ethyl]-2(S) hydroxy 4-methyl pentanoyl L-3,4-dichlorophenylalanine N-(2-(2-methoxyethoxy)1-ethyl)amide]",,0.14,,0.37,60,,
"CNC(=O)[C@H](Cc1ccc(OC)cc1)NC(=O)[C@](O)(CC(C)C)[C@H](OC)C(=O)NO [Example 31, N-2(S)[(S) hydroxycarbamoyl(S)methoxy]methyl 2(S) hydroxy-4 methyl pentanoyl O-methyl tyrosine N-methylamide]",120,18,140,,,90,
"COc1ccc(C[C@H](NC(=O)[C@](O)(CC(C)C)[C@H](C)C(=O)NO)C(=O)NCc2ccccc2)cc1 [Example 5, N-2(S)[-1-(S)(hydroxycarbamoyl)-ethyl]-2(S) hydroxy-4-methyl 2entanol O methyl-L-tyrosine phenylmethylamide]",12,2.4,0.5,,,11,
"CNC(=O)[C@H](Cc1ccc(Cl)cc1Cl)NC(=O)[C@](O)(CC(C)C)[C@H](C)C(=O)NO [Example 20, N-2(S)[1(S)hydroxycarbamoyl-1 ethyl]-2 (S) hydroxy 4-methylpentanoyl L-2,4-dichlorophenylalanine N-methylamide]",3.7,1.6,0.2,1,,,
"CNC(=O)[C@@H](NC(=O)[C@](O)(CC(C)C)[C@H](C)C(=O)NO)C(C)(C)C [Example 2, N-2-(S)[1(S)(hydroxycarbamoyl)ethyl]-2(S) hydroxy-4-methylpentanoyl 3-methyl-(S) valine N-methylamide]",18,3.4,16,,,60,

# More lines, now with the values ahead:
IC50 [1] [nM],IC50 [2] [nM],IC50 [3] [nM],IC50 ([4]; Peritoneal macrophage) [µM],gelatinase 92 kDa* (in %) [3] [%],IC50 [5] [nM],IC50 [4] [µM],Compound
225,0.01,,0.58,86,,,"CNC(=O)[C@H](Cc1ccc(Cl)c(Cl)c1)NC(=O)[C@](O)(CCCc1ccccc1)[C@H](C)C(=O)NO [Example 33, N-2-(S)[1(S)(hydroxycarbamoyl)ethyl]2(S) hydroxy 5-phenylpentanoyl L-3,4-dichlorophenylalanine N-methylamide]"
,1.6,1.6,0.27,,,,"CCC[C@H](C(=O)NO)[C@@](O)(CC(C)C)C(=O)N[C@@H](Cc1ccc(Cl)cc1)C(=O)NC [Example 17, N-2(S) hydroxy 3(S) hydroxycarbamoyl 2(S) 1(2-methyl) propyl hexanoyl L-4-chlorophenylalanine N-methyl amide]"
130,,17,3.2,,,,"CNC(=O)[C@H](Cc1ccc(OC)cc1)NC(=O)[C@](O)(CC(C)C)C(C)N(O)C=O (mixture of isomers) [Example 38, N-2(S)-[1(N-hydroxy-N-formyl)ethyl]2(S)-hydroxy4-methylpentanoyl-o-methyl L-tyrosine methylamide]"
4,,1.1,0.3,,,,CC(C)C[C@@](O)(C(=O)N[C@@H](Cc1ccc(Cl)c(Cl)c1)C(=O)NCCN1CCOCC1)[C@H](C)C(=O)NO [Example 35b]
7,0.7,0.001,0.5,,,,"CC(C)C[C@@](O)(C(=O)N[C@@H](Cc1ccc(Cl)c(Cl)c1)C(=O)NCCOCCO)[C@H](C)C(=O)NO [Example 19, N-2(S)[1(S)hydroxycarbamoyl-1 ethyl]-2 (S) hydroxy 4-methylpentanoyl L-3,4 dichlorophenylalanine N-hydroxyethyloxyethylamide]"
5,,,0.4,83,,,"CSCCNC(=O)[C@H](Cc1ccc(Cl)c(Cl)c1)NC(=O)[C@](O)(CC(C)C)[C@H](C)C(=O)NO [Example 21, N-2(S)[1(S)hydroxycarbamoyl-1 ethyl]-2(S) hydroxy-4-methylpentanoyl L-3,4-dichlorophenylalanine N-(2-methylthio-1-ethyl) amide]"
6,,0.38,,,,0.86,"N-2(S)[1(S)-hydroxycarbamoyl-1 (S) ethyl]-2 (S)-hydroxy-4-methyl pentanoyl L-(3,4)-dichlorophenylalanine N-(2-(4-morpholino)1-ethyl) amide [Example 35a]"
,0.8,1.9,> 1,,,,"C[C@H](C(=O)NO)[C@@](O)(CCCc1ccccc1)C(=O)N[C@@H](CC1CCCCC1)C(=O)NCCc1ccccc1 [Example 32, N-2-(S)[1(S)(hydroxycarbamoyl)ethyl]2(S) hydroxy 5-phenyl pentanoyl L-3-cyclohexylalanine 2 phenylethylamide]"
